Source: patent US10765114B2, “4-amino-6-(pyridyl and 2-substitutedphenyl)-picolinates and 6-amino-2-(pyridyl and 2-substitutedphenyl)-pyrimidine-4-carboxylates and their use as herbicides” (Dow AgroSciences LLC, priority 2013, dated 2020)

Columns and labels:
Test in all cases: Post-Emergent Test III (Wheat and Barley)
SETVI (green foxtail) = assay type: in vivo, Setaria viridis; settings: for pest or weed control at 35 g/ha: 35 g ai/ha; for pest or weed control at 70 g/ha: 70 g ai/ha; for GR50, SETVI: effective dose for growth reduction of 50 percent; for GR50, SETVI / GR80, SETVI: probit analysis; for GR80, SETVI: effective dose for growth reduction of 80 percent
Method: (§1) Seeds of the desired test plant species were planted in Sun Gro MetroMix® 306 planting mixture, which typically has a pH of 6.0 to 6.8 and an organic matter content of about 30 percent, in plastic pots with a surface area of 103.2 square centimeters (cm^2). When required to ensure good germination and healthy plants, a fungicide treatment and/or other chemical or physical treatment was applied. The plants were grown for 7-36 days in a greenhouse with an approximate 14 h photoperiod which was maintained at about 18° C. during the day and 17° C. during the night. Nutrients and water were added on a regular basis and supplemental lighting was provided with overhead metal halide 1000-Watt lamps as necessary. The plants were employed for testing when they reached the second or third true leaf stage.
(§2) A weighed amount, determined by the highest rate to be tested, of each test compound was placed in a 25 mL glass vial and was dissolved in 4 mL of a 97:3 v/v mixture of acetone and DMSO to obtain concentrated stock solutions. […] The concentrated stock solutions obtained were diluted with 20 mL of an aqueous mixture containing acetone, water, isopropyl alcohol, DMSO, Agri-Dex crop oil concentrate, and X-77 surfactant in a 48:39:10:1.5:1.5:0.02 v/v ratio to obtain spray solutions containing the highest application rates. Additional application rates were obtained by serial dilution of 12 mL of the high rate solution into a solution containing 2 mL of 97:3 v/v mixture of acetone and DMSO and 10 mL of an aqueous mixture containing acetone, water, isopropyl alcohol, DMSO, Agri-Dex crop oil concentrate, and X-77 surfactant in a 48:39:10:1.5:1.5:0.02 v/v ratio to obtain ½×, ¼×, ⅛× and 1/16× rates of the high rate. Compound requirements are based upon a 12 mL application volume at a rate of 187 liters per hectare (L/ha). Formulated compounds were applied to the plant material with an overhead Mandel track sprayer equipped with 8002E nozzles calibrated to deliver 187 L/ha over an application area of 0.503 square meters at a spray height of 18 inches (43 cm) above the average plant canopy height. Control plants were sprayed in the same manner with the solvent blank.
(§3) The treated plants and control plants were placed in a greenhouse as described above and watered by subirrigation to prevent wash-off of the test compounds. After 21 dAYS, the condition of the test plants as compared with that of the untreated plants was determined visually and scored on a scale of 0 to 100 percent where 0 corresponds to no injury and 100 corresponds to complete kill and presented as indicated in Table A.
(§4) By applying the well-accepted probit analysis as described by J. Berkson in Journal of the American Statistical Society, 48, 565 (1953) and by D. Finney in “Probit Analysis” Cambridge University Press (1952), herbicidal injury of a specific compound at various rates can be used to calculate GR10, GR20, GR50, GR80 and GR90 values, which are defined as growth reduction factors that correspond to the effective dose of herbicide required to provide plant growth reduction (GR) of 10 percent, 20 percent, 50 percent, 80 percent and 90 percent, respectively. Probit analysis was applied to data collected from multiple dose rates of individual compounds utilizing the procedures explained in the following examples. The analysis of those dose rates is captured in the following tables.

KCHSC (kochia) = assay type: in vivo, Kochia scoparia; settings: for pest or weed control at 35 g/ha: 35 g ai/ha; for pest or weed control at 70 g/ha: 70 g ai/ha; for GR50, KCHSC: effective dose for growth reduction of 50 percent; for GR50, KCHSC / GR80, KCHSC: probit analysis; for GR80, KCHSC: effective dose for growth reduction of 80 percent
Method: as §1, §2, §3, §4

ALOMY (blackgrass) = assay type: in vivo, Alopecurus myosuroides; settings: for pest or weed control at 35 g/ha: 35 g ai/ha; for pest or weed control at 70 g/ha: 70 g ai/ha; for GR50, ALOMY: effective dose for growth reduction of 50 percent; for GR50, ALOMY / GR80, ALOMY: probit analysis; for GR80, ALOMY: effective dose for growth reduction of 80 percent
Method: as §1, §2, §3, §4

APESV (windgrass) = assay type: in vivo, Apera spica-venti; settings: for pest or weed control at 35 g/ha: 35 g ai/ha; for pest or weed control at 70 g/ha: 70 g ai/ha; for GR50, APESV: effective dose for growth reduction of 50 percent; for GR50, APESV / GR80, APESV: probit analysis; for GR80, APESV: effective dose for growth reduction of 80 percent
Method: as §1, §2, §3, §4

HORSS = assay type: in vivo; settings: for pest or weed control at 35 g/ha: 35 g ai/ha; for pest or weed control at 70 g/ha: 70 g ai/ha; for GR20, HORSS: effective dose for growth reduction of 20 percent, probit analysis
Method: as §1, §2, §3, §4

TRZSS = assay type: in vivo; settings: for pest or weed control at 35 g/ha: 35 g ai/ha; for pest or weed control at 70 g/ha: 70 g ai/ha; for GR20, TRZSS: effective dose for growth reduction of 20 percent, probit analysis
Method: as §1, §2, §3, §4

[1] = Setaria viridis, post-emergence, 504 h, postemergence, read-out: Visual Growth Reduction (%) 21 Days After Application, SETVI
[2] = Bassia scoparia, post-emergence, 504 h, postemergence, read-out: Visual Growth Reduction (%) 21 Days After Application, KCHSC
[3] = Alopecurus myosuroides, post-emergence, 504 h, postemergence, read-out: Visual Growth Reduction (%) 21 Days After Application, ALOMY
[4] = Apera spica-venti, post-emergence, 504 h, postemergence, read-out: Visual Growth Reduction (%) 21 Days After Application, APESV
[5] = Hordeum vulgare, post-emergence, 504 h, postemergence, read-out: Visual Growth Reduction (%) 21 Days After Application, HORSS
[6] = Triticum aestivum, post-emergence, 504 h, postemergence, read-out: Visual Growth Reduction (%) 21 Days After Application, TRZSS

Row | Compound | pest or weed control at 35 g/ha (SETVI (green foxtail); [1]) [%] | pest or weed control at 70 g/ha (SETVI (green foxtail); [1]) [%] | GR50, SETVI (SETVI (green foxtail)) [g ai/ha] | GR80, SETVI (SETVI (green foxtail)) [g ai/ha] | pest or weed control at 35 g/ha (KCHSC (kochia); [2]) [%] | pest or weed control at 70 g/ha (KCHSC (kochia); [2]) [%] | GR50, KCHSC (KCHSC (kochia)) [g ai/ha] | GR80, KCHSC (KCHSC (kochia)) [g ai/ha] | pest or weed control at 35 g/ha (ALOMY (blackgrass); [3]) [%] | pest or weed control at 70 g/ha (ALOMY (blackgrass); [3]) [%] | GR50, ALOMY (ALOMY (blackgrass)) [g ai/ha] | GR80, ALOMY (ALOMY (blackgrass)) [g ai/ha] | pest or weed control at 35 g/ha (APESV (windgrass); [4]) [%] | pest or weed control at 70 g/ha (APESV (windgrass); [4]) [%] | GR50, APESV (APESV (windgrass)) [g ai/ha] | GR80, APESV (APESV (windgrass)) [g ai/ha] | pest or weed control at 35 g/ha (HORSS; [5]) [%] | pest or weed control at 70 g/ha (HORSS; [5]) [%] | GR20, HORSS (HORSS) [g ai/ha] | pest or weed control at 35 g/ha (TRZSS; [6]) [%] | other results
1 | Nc1c(Cl)c(C(=O)O)nc(-c2ccc(C(F)(F)F)nc2)c1Cl [Compound 33] | 45 to 59 | 60 to 74 | 48 | >140 | 0 to 29 | 45 to 59 | 95 | >140 | 60 to 74 | 75 to 84 | 37 | 72 | 0 to 29 | 60 to 74 | 70 | 134 | 75 to 84 | 85 to 94 | 1 | 75 to 84 | pest or weed control at 140 g/ha (SETVI (green foxtail); Setaria viridis, post-emergence, 504 h, 140 g ai/ha, postemergence, read-out: Visual Growth Reduction (%) 21 Days After Application, SETVI): 60 to 74%; pest or weed control at 140 g/ha (KCHSC (kochia); Bassia scoparia, post-emergence, 504 h, 140 g ai/ha, postemergence, read-out: Visual Growth Reduction (%) 21 Days After Application, KCHSC): 60 to 74%; pest or weed control at 140 g/ha (ALOMY (blackgrass); Alopecurus myosuroides, post-emergence, 504 h, 140 g ai/ha, postemergence, read-out: Visual Growth Reduction (%) 21 Days After Application, ALOMY): 85 to 94%; pest or weed control at 140 g/ha (APESV (windgrass); Apera spica-venti, post-emergence, 504 h, 140 g ai/ha, postemergence, read-out: Visual Growth Reduction (%) 21 Days After Application, APESV): 60 to 74%; pest or weed control at 140 g/ha (HORSS; Hordeum vulgare, post-emergence, 504 h, 140 g ai/ha, postemergence, read-out: Visual Growth Reduction (%) 21 Days After Application, HORSS): 85 to 94%; pest or weed control at 70 g/ha (TRZSS; [6]): 75 to 84%; pest or weed control at 140 g/ha (TRZSS; Triticum aestivum, post-emergence, 504 h, 140 g ai/ha, postemergence, read-out: Visual Growth Reduction (%) 21 Days After Application, TRZSS): 85 to 94%; GR20, TRZSS (TRZSS): 1 g ai/ha
2 | Nc1c(F)c(-c2ccc(C3CC3)nc2)nc(C(=O)O)c1Cl [Compound 36, 4-amino-5-chloro-6′-cyclopropyl-3-fluoro-[2,3′-bipyridine]-6-carboxylic acid] | 30 to 44 | 45 to 59 | 59 | >140 | 45 to 59 | 60 to 74 | 34 | 108 | 0 to 29 | 30 to 44 | 126 | >140 | 45 to 59 | 85 to 94 | 24 | 53 | 60 to 74 | 75 to 84 | 1 | 60 to 74 | pest or weed control at 70 g/ha (TRZSS; [6]): 75 to 84%; GR20, TRZSS (TRZSS): 1 g ai/ha
